Results as given in US12636299B2, “Terpenoid derivatives, pharmaceutical preparations containing these derivatives and their use in neuroprotection” (UNIVERZITA PALACKEHO V OLOMOUCI, priority 2020, dated 2026).

Columns and labels:
[1] = system: superoxide radical formation; assay: Oxidative stress (superoxide radical formation, DHE) in 3NPA-induced model on SH-SY5Y; format: cell-based, human; conditions: for Superoxide radical formation (oxidative stress) %: 20 mM 3NPA = 100%, 24 hours
Experimental: Similarly, to previous assay, cells grown on 96-multiwell plates at density 20000 cells per well underwent differentiation and treatment procedure with 3-nitropropionic acid (3NPA) in this model. After 24 hours of co-treatment with 20 mM 3NPA, superoxide radical's formation as a marker of oxidative stress was quantified by dihydroethidium according to Kim et al. (2017, J. Med. Food, 20, 140-151). Briefly, neuron-like SH-SY5Y cells were centrifuged at 500 g for 5 min and 30 s, then media were replaced by 10 μM DHE PBS solution and kept at room temperature for 30 min. After that, DHE was read at 500 nm/580 nm (excitation/emission) by Infinite M200 Pro (Tecan) microplate reader. DHE is cell permeable dye which is selective for superoxide radical detection. Overall oxidative stress achieved by 20 mM 3NPA was consider as 100% and thus the reduction in superoxide radical's formation (OS reducing effect) was determined. As shown in Table 6 and FIG. 2, 20 mM 3NPA induced 2.7-fold increase in superoxide radical's formation.

glial A-172 cells = assay: Cytotoxicity, Calcein AM viability assay on glial A-172 cells; format: cell-based, human; conditions: 48 hours
[2] = system: human neuroblastoma cell line SH-SY5Y; assay: Viability of differentiated SH-SY5Y in salsolinol-induced model of PD (Calcein AM); format: cell-based; conditions: for Neuroprotective effect (% of control): difference between 800 μM SAL and co-treatment group means
Experimental: Similarly, as in previous “Safety test”, the SH-SY5Y cells were seeded at density 7000 cells/well. After 48 h differentiation, old 1% DMEM/F12 media was replaced by fresh media containing 800 μM salsolinol (SAL) and tested compounds in 0.1, 1 and 10 μM concentrations. N-acetylcystein were chosen as positive control. After 24 hours, the cell viability was measured by Calcein AM viability assay. The values in Table 2 show % of viability of all tested compounds relative to control. The control (medium with DMSO, <0.1% (v/v)) was postulated as 100% viability (see the first line of the table), while the SAL exposure lead to decrease of viability to 65.4±0.97%.

caspase-3,7 activity = assay: Caspase-3,7 activity in salsolinol-induced model of PD on SH-SY5Y (Ac-DEVD-AMC); format: cell-based, human; conditions: for Caspase-3,7 activity (% of 800 μM SAL control): percentages of control (800 μM SAL = 100), 24 hour co-treatment; for reduction of caspase-3,7 activity, in words: 800 μM SAL, compounds 3 and 4 at 10 μM compared with NAC
Experimental: Similarly, as shown in previous assay, cells grew on 96 multiwell plates at density 20000 cells per well underwent differentiation and treatment procedure for salsolinol model. After 24 hour co-treatment with salsolinol, caspase-3,7 (casp-3,7) activity as marker of apoptosis was quantified by its substrate Ac-DEVD-AMC according to Carrasco et al. (2003, BioTechniques, 34, 1064-1067). In this model, overall casp-3,7 activity induced by 800 μM SAL was consider as 100% and thus the reduction in casp-3,7 was observed after treatment with the protective terpenoid derivatives. As shown in Table 4 and FIG. 2, 800 μM SAL induced 2.9-fold increase.

astrocyte A-172 cells = assay: 3NPA-induced model of Huntington's disease, astrocyte A-172 cells; format: cell-based, human; conditions: for Astro-protective effect (% of control): difference to 10 mM 3NPA, 48 h
Experimental: (§1) Before application of toxin 3-nitropropionic acid (3NPA) for mimicking Huntington's disease, the 3NPA was dissolved in water and neutralized by sodium hydroxide. SH-SY5Y cells were seeded in the same density and differentiated by the procedure shown above. Astrocyte cells A-172 were also seeded as described in previous section. Both cell lines were co-treated by 3NPA (20 mM for SH-SY5Y cells, […]) and tested compounds at 0.1, 1 and 10 μM concentration for 48 h.

[3] = system: SH-SY5Y human neuroblastoma cell line; assay: Cytotoxicity, Calcein AM viability assay on neuron-like SH-SY5Y cells; format: cell-based; conditions: 24 h
Experimental: The SH-SY5Y human neuroblastoma cell line obtained from ECACC (The European Collection of Authenticated Cell Cultures) was cultivated in Dulbecco's modified Eagle's Medium and Ham's F12 Nutrient Mixture (DMEM:F-12, 1:1), supplemented with 10% fetal bovine serum (FBS) and 1% penicillin and streptomycin at 37° C. in a humidified atmosphere 5% CO2, 95% humidity in passage limit up to ECACC+20. The assay was performed in 96-well microplate with 7000 SH-SY5Y cells per well. After 48 h, old DMEM/F12 media was removed by fresh media containing tested compounds at 0.1, 1 and 10 μM concentrations for 24 h. Glial cell line A-172 purchased from ATCC and grown in same conditions as SH-SY5Y cell line. A-172 cells were seeded in density 2000 cells per well and growing medium was replaced by treatment medium containing tested compounds in 0.1, 1 and 10 μM concentration; or in higher concentrations for R-LA or NAC positive controls for 48 hours. All tested compounds dissolved in DMSO were added into the medium. The maximum concentration of DMSO in media was kept below 0.1% (v/v). The cell viability was measured by Calcein AM (1 mg/ml ThermoFisher) viability assay. Solution of Calcein AM in PBS (0.75 μM) was pipetted to cells and incubated for 50 min. After that the fluorescence was measured at 488/517 nm (excitation/emission) using microplate reader Infinite M200 (TECAN). Calcein AM assay is based on the dye-intracellular-esterase cleavage of non-fluorescent dye (Calcein AM) by living cells to fluorescent dye (Calcein), while dying cells lose such ability. The values in Table 2 show the % of viability compared to control for all tested compounds. The results from DMSO control (medium with DMSO, <0.1% (v/v)) was postulated as 100% viability (see the first line of Table 2).

[4] = system: human neuron-like SH-SY5Y cells; assay: 3NPA-induced model of Huntington's disease, neuron-like SH-SY5Y cells; format: cell-based; conditions: difference to 20 mM 3NPA, 48 h
Experimental: as §1

Row | SMILES | viability, percentage of DMSO control (glial A-172 cells; 0.1 μM) [%] | viability, percentage of DMSO control (glial A-172 cells; 1 μM) [%] | viability, percentage of DMSO control (glial A-172 cells; 10 μM) [%] | Neuroprotective effect (% of control) ([2]; 0.1 μM, 24 hours) | Neuroprotective effect (% of control) ([2]; 1 μM, 24 hours) | Neuroprotective effect (% of control) ([2]; 10 μM, 24 hours) | Caspase-3,7 activity (% of 800 μM SAL control) (caspase-3,7 activity; 1 μM) [%] | Caspase-3,7 activity (% of 800 μM SAL control) (caspase-3,7 activity; 10 μM) [%] | reduction of caspase-3,7 activity, in words (caspase-3,7 activity) | Astro-protective effect (% of control) (astrocyte A-172 cells; A-172, 0.1 μM) | Astro-protective effect (% of control) (astrocyte A-172 cells; A-172, 1 μM) | Astro-protective effect (% of control) (astrocyte A-172 cells; A-172, 10 μM) | Superoxide radical formation (oxidative stress) % ([1]; 0.1 μM) [%] | Superoxide radical formation (oxidative stress) % ([1]; 1 μM) [%] | Superoxide radical formation (oxidative stress) % ([1]; 10 μM) [%] | viability, percentage of DMSO control ([3]; 0.1 μM) [%] | viability, percentage of DMSO control ([3]; 1 μM) [%] | viability, percentage of DMSO control ([3]; 10 μM) [%] | Neuro-protective effect (% of control) ([4]; 0.1 μM) | Neuro-protective effect (% of control) ([4]; 1 μM) | also measured
1 | O=C(O)CC[N+](=O)[O-] [Compound 3NPA, 3-nitropropionic acid, reference compound] | – | – | – | – | – | – | – | – | – | – | – | – | – | – | – | – | – | – | – | – | increase in superoxide radical's formation ([1]; 20 mM 3NPA versus DMSO control): 2.7 fold
2 | C=C(C(=O)OCc1ccco1)C1CCC2(COC(C)=O)CCC3(C)C(CCC4C5(C)CCC(OC(C)=O)C(C)(C)C5CCC43C)C12 (stereo not drawn) [Compound 5, Furan-2-yl-methyl 3β,28-diacetyloxylup-20(29)-en-30-oate] | 96.6 | 100.0 | 90.8 | N/A (N/A = no protection) | N/A (N/A = no protection) | 18.96 % of control | 86.8 | 76.5 | positive effect on casp-3,7 activity | N/A (N/A = no protection) | 12.87 % of control | 14.05 % of control | 94.1 | 87.3 | 87.1 | 91.9 | 106.4 | 129.5 | N/A (N/A = no protection) | N/A (N/A = no protection) | effect on SH-SY5Y viability in salsolinol model, in words ([2]; 800 μM salsolinol, comparison with NAC): better effect than 1000 μM NAC; efficacy relative to positive controls (by used concentration) (caspase-3,7 activity; caspase-3,7 activity, salsolinol model): 10 fold; protective effect on astrocytes in 3NPA model, in words (astrocyte A-172 cells; A-172 cells, comparison with R-LA): positive effect comparable to R-LA control; Neuro-protective effect (% of control) ([4]; 10 μM): 20.63 % of control
3 | C=C(C(=O)OCc1cccs1)C1CCC2(COC(C)=O)CCC3(C)C(CCC4C5(C)CCC(OC(C)=O)C(C)(C)C5CCC43C)C12 (stereo not drawn) [Compound 6, Thiophen-2-ylmethyl 3β,28-diacetyloxy-lup-20(29)-en-30-oate] | 99.9 | 98.4 | 96.2 | N/A (N/A = no protection) | N/A (N/A = no protection) | 7.38 % of control | 93.2 | 88.3 | positive effect on casp-3,7 activity | 4.27 % of control | 4.57 % of control | 7.45 % of control | 92.2 | 89.9 | 88.0 | 92.1 | 96.2 | 113.5 | N/A (N/A = no protection) | N/A (N/A = no protection) | Neuro-protective effect (% of control) ([4]; 10 μM): 20.53 % of control
4 | O=C(O)CCCC[C@@H]1CCSS1 [R-LA, R-lipoic acid, reference compound] | – | – | – | – | – | – | – | – | – | – | – | – | – | – | – | – | – | – | – | – | Astro-protective effect (% of control) (astrocyte A-172 cells; A-172, column head 0.5 μM (positive controls)): N/A (N/A = no protection); Astro-protective effect (% of control) (astrocyte A-172 cells; A-172, column head 5 μM (positive controls)): 13.27 % of control; Astro-protective effect (% of control) (astrocyte A-172 cells; A-172, column head 50 μM (positive controls)): 14.87 % of control
5 | C[C@@H]1NCCc2cc(O)c(O)cc21 [SAL, salsolinol, reference compound] | – | – | – | – | – | – | – | – | – | – | – | – | – | – | – | – | – | – | – | – | viability relative to DMSO control after SAL exposure ([2]; 800 μM salsolinol alone, 24 hours): 65.4±0.97%; increase of caspase-3,7 activity (caspase-3,7 activity; 800 μM SAL versus DMSO control): 2.9 fold
